Data on three compounds can be found in patent US20040166163A1, “Antibacterial composition for medical tool” (priority 2001, published 2004).

Assay type in all cases: cell-based
One assay concerns Bacillus subtilis. The experiment in a line: Antimicrobial test of PVC test piece, bacteria (surviving cells). Conditions: soft PVC sheet; ZnPT 0.01 + test compound 0.3 parts per 100 PVC; 35° C., 2 days. The procedure: (§1) A mixture having the formulation described below was roll kneaded at 170° C. to prepare a sheet, which was pressed at 180° C. for 5 minutes to obtain a 0.5 mm thick soft PVC sheet. A 10 mm×10 mm test piece was cut out of the soft PVC sheet and evaluated for antimicrobial properties against bacteria (Nos. 1 to 5 in Table 1) and fungi (Nos. 6 to 8 in Table 1) in accordance with the respective methods described below.
(§2) The culture solution was applied to the test piece, and the test piece was tightly covered with polyethylene cling film. After cultivation at 35° C. for 2 days, the number of surviving cells was counted and rated based on the following criteria.
(§3) A mixture having the formulation shown below was roll kneaded at 170° C. to prepare a sheet, which was pressed at 180° C. for 5 minutes to obtain a 0.5 mm thick semi-rigid PVC sheet. A 10 mm×10 mm test piece was cut out of the semi-rigid PVC sheet. Zinc pyrithione and a test compound were previously compounded to prepare an antimicrobial composition in a predetermined ratio to give the formulation. The test piece was tested in the same manner as in Example 1.

In another assay the test system is Escherichia coli. The description is as above. The conditions noted are these: soft PVC sheet; ZnPT 0.01 + test compound 0.3 parts per 100 PVC; 35° C., 2 days. As for the experimental part: as §1, §2, §3
Another assay relates to Lactobacillus. The assay is described as above. Conditions: soft PVC sheet; ZnPT 0.01 + test compound 0.3 parts per 100 PVC; 35° C., 2 days. The procedure:
as §1, §2, §3

In a further assay the test system is MRSA. The description is as above. The conditions noted are these: soft PVC sheet; ZnPT 0.01 + test compound 0.3 parts per 100 PVC; 35° C., 2 days. The procedure:
as §1, §2, §3

Another assay has as its system Staphylococcus aureaus. Described as above. Conditions: soft PVC sheet; ZnPT 0.01 + test compound 0.3 parts per 100 PVC; 35° C., 2 days. The procedure:
as §1, §2, §3

A further assay deals with Brewer's yeast. The experiment in a line: Antimicrobial test of PVC test piece, fungi (growth on agar-covered piece). On the set-up: key: A: No growth on the test piece.; B: The grown fungi covers less than 30% of the test piece's surface area.; C: The grown fungi covers 30% or more and less than 70% of the test piece's surface area.; D: The grown fungi covers 70% or more of the test piece's surface area. The conditions noted are these: soft PVC sheet; ZnPT 0.01 + test compound 0.3 parts per 100 PVC; 35° C., 1 week. As for the experimental part: as §1
(§4) The test piece was placed at the center of a culture dish, and a common agar medium was poured to thinly cover the test piece. The culture solution was applied to the agar medium and cultivated at 35° C. for 1 week. The growth of the fungus was observed and rated based on the following criteria.
as §3

Another assay relates to Kurokawa mold. The description is as above. On the set-up: key: A: No growth on the test piece.; B: The grown fungi covers less than 30% of the test piece's surface area.; C: The grown fungi covers 30% or more and less than 70% of the test piece's surface area.; D: The grown fungi covers 70% or more of the test piece's surface area. The conditions noted are these: soft PVC sheet; ZnPT 0.01 + test compound 0.3 parts per 100 PVC; 35° C., 1 week. As for the experimental part:
as §1, §4, §3

For a further assay, the system named is Trichophyton. The description is as above. The conditions noted are these: soft PVC sheet; ZnPT 0.01 + test compound 0.3 parts per 100 PVC; 35° C., 1 week. On the set-up: key: A: No growth on the test piece.; B: The grown fungi covers less than 30% of the test piece's surface area.; C: The grown fungi covers 30% or more and less than 70% of the test piece's surface area.; D: The grown fungi covers 70% or more of the test piece's surface area. The procedure:
as §1, §4, §3

Molecules are shown by their SMILES.

For `Cc1cc2c(c(C(C)(C)C)c1)OP(=O)([O-])Oc1c(cc(C)cc1C(C)(C)C)C2.[Na+]` [No. 6], in the assay on Bacillus subtilis, the “Survival rate rating, microorganism 3: Bacillus subtilis” value is listed as “A (The survival rate is less than 0.1%.)”. Besides, the “Survival rate rating, microorganism 5: Escherichia coli” value in the assay on Escherichia coli is on record as “A (The survival rate is less than 0.1%.)”. Also, the “Survival rate rating, microorganism 4: Lactobacillus” value (“Survival rate rating … Lactobacillus” for short) in the assay on Lactobacillus is “A (The survival rate is less than 0.1%.)”. Also, in the assay on MRSA, the “Survival rate rating, microorganism 2: MRSA” value (“Survival rate rating … MRSA” for short) is given as “A (The survival rate is less than 0.1%.)”. Also, the “Survival rate rating, microorganism 1: Staphylococcus aureaus” value with Staphylococcus aureaus is “A (The survival rate is less than 0.1%.)”. Moreover, in the assay with Brewer's yeast, the “Fungal growth rating, microorganism 7: Brewer's yeast” value (“Fungal growth rating … Brewer's yeast” below) was “A”. The “Fungal growth rating, microorganism 8: Kurokawa mold” value (“Fungal growth rating … Kurokawa mold” for short) in the assay on Kurokawa mold was “A”. In addition, the “Fungal growth rating, microorganism 6: Trichophyton” value (“Fungal growth rating … Trichophyton” for short) in the assay with Trichophyton is given as “A”.

On to `CC1c2cc(C(C)(C)C)cc(C(C)(C)C)c2OP(=O)([O-])Oc2c1cc(C(C)(C)C)cc2C(C)(C)C.[Na+]` (stereo not drawn) [No. 7], for which the “Survival rate rating, microorganism 3: Bacillus subtilis” value in the assay on Bacillus subtilis is listed as “A (The survival rate is less than 0.1%.)”. Also, in the assay with Escherichia coli, the “Survival rate rating, microorganism 5: Escherichia coli” value is listed as “A (The survival rate is less than 0.1%.)”. Further, the “Survival rate rating … Lactobacillus” value in the assay with Lactobacillus is given as “A (The survival rate is less than 0.1%.)”. Moreover, the “Survival rate rating … MRSA” value in the assay on MRSA is given as “A (The survival rate is less than 0.1%.)”. In addition, in the assay with Staphylococcus aureaus, the “Survival rate rating, microorganism 1: Staphylococcus aureaus” value is given as “A (The survival rate is less than 0.1%.)”. Besides, in the assay with Brewer's yeast, the “Fungal growth rating … Brewer's yeast” value was “A”. In the assay with Kurokawa mold, the “Fungal growth rating … Kurokawa mold” value is reported as “A”. The “Fungal growth rating … Trichophyton” value in the assay on Trichophyton is recorded as “A”.

As to `Cc1c(C(C)(C)C)cc(C(C)(C)C)c2c1C(C)c1c(C)c(C(C)(C)C)cc(C(C)(C)C)c1OP(=O)([O-])O2.[Na+]` (stereo not drawn) [No. 8], the “Survival rate rating, microorganism 3: Bacillus subtilis” value with Bacillus subtilis is reported as “A (The survival rate is less than 0.1%.)”. In addition, the “Survival rate rating, microorganism 5: Escherichia coli” value in the assay with Escherichia coli is “A (The survival rate is less than 0.1%.)”. Also, the “Survival rate rating … Lactobacillus” value with Lactobacillus is “A (The survival rate is less than 0.1%.)”. In the assay with MRSA, the “Survival rate rating … MRSA” value is “A (The survival rate is less than 0.1%.)”. Moreover, the “Survival rate rating, microorganism 1: Staphylococcus aureaus” value with Staphylococcus aureaus is “A (The survival rate is less than 0.1%.)”. Further, the “Fungal growth rating … Brewer's yeast” value in the assay with Brewer's yeast was “A”. The “Fungal growth rating … Kurokawa mold” value in the assay on Kurokawa mold was “A”. Moreover, in the assay with Trichophyton, the “Fungal growth rating … Trichophyton” value is reported as “A”.
